Measurements taken from patent US20160120863A1, “SLC2A TRANSPORTER INHIBITORS” (IOMET PHARMA LTD., priority 2013, published 2016).

Assays:
human GLUT1 = target: T1, human GLUT1 (Homo sapiens, UniProt P11166); test: [3H]-deoxy-D-glucose uptake assay, GLUT1; format: cell-based; conditions: [3H]-deoxy-D-glucose uptake in HEK293 cells stably expressing human GLUT1
T1 construct: expressed in transfected cells
T1 sequence (P11166 1-492): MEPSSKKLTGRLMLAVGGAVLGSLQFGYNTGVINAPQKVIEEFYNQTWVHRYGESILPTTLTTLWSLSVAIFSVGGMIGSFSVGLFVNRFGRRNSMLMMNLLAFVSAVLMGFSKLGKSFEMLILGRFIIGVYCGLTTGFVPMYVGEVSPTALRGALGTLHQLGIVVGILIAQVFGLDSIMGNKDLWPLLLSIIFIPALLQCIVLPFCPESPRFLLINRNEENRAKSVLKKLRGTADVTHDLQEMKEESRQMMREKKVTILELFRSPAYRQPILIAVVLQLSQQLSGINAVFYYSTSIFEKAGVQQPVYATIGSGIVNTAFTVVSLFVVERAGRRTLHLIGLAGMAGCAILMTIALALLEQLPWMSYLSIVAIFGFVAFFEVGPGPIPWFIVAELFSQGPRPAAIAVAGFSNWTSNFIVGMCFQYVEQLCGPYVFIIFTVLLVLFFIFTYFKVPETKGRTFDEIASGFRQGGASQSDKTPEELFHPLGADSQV
In short: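 HEK293 cells stably overexpressing human GLUT1 or GLUT2, seeded at 60,000 per well, treated with compounds in glucose-free uptake buffer for 30 min at 37 °C. [3H]-deoxy-D-glucose uptake quantified by scintillation counting after ice-cold PBS washes; IC50 determined.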

human GLUT2 = target: T2, human GLUT2 (Homo sapiens, UniProt P11168); test: [3H]-deoxy-D-glucose uptake assay, GLUT2; format: cell-based; conditions: [3H]-deoxy-D-glucose uptake in HEK293 cells stably expressing human GLUT2
T2 construct: expressed in transfected cells
T2 sequence (P11168 1-524): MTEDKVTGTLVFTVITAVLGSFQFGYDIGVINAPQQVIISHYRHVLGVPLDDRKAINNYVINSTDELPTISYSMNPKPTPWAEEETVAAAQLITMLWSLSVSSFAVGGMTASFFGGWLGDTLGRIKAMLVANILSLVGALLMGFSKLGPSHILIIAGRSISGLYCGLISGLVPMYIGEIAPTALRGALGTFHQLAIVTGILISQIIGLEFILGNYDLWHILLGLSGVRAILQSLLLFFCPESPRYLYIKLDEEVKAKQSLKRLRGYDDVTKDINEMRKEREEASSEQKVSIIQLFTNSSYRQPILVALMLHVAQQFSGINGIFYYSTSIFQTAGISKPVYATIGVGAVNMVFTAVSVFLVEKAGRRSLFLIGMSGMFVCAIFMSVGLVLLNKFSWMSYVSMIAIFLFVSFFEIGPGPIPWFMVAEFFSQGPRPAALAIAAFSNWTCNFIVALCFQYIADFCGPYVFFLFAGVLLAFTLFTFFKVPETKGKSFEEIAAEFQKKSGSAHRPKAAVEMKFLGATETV
Method: HEK293 cells were engineered to stably express either human GLUT1, GLUT2, GLUt3 or GLUT4 by transfection with the pReceiver-Lv105 plasmid, containing either hGLUT1, hGLUT2, hGLUT3, or hGLUT4 gene constructs with lipofectamine 2000, hGLUT1- hGLUT2- hGLUT3- or hGLUT4-overexpressing polyclonal populations were isolated under purinomycin selective pressure (1 μg/ml) and maintained in Dulbecco's modified Eagle's medium supplemented with 1 μg/ml purinomycin+10% foetal bovine serum (FBS).
60,000 cells per well were seeded overnight into poly-D-lysine coasted 96-well plates. […] 90 μl of test compounds were added in glucose-free uptake buffer and cells were incubated at 37° C. for 30 min.
Cells were then washed twice with ice-cold PBS and 100 μl of Microscint-20 was added per well. Glucose uptake was quantified with a scintillation counter. The half maximal inhibitory concentration (IC50) (a measure of the effectiveness of the test compound in inhibiting glucose uptake) was determined.

Structure (SMILES)	GLUT1 pIC50 (human GLUT1)	GLUT2 pIC50 (human GLUT2)
Clc1ccc(-c2nc3cnc(C4CC4)cn3c2CN2CCn3ncnc3C2)cc1 [Compound 261]	+++ (pIC50 ≧ 6.00)	+++ (pIC50 ≧ 6.00)
N#Cc1ccccc1-c1cn2c(CN3CCOCC3)c(-c3ccc(Cl)cc3)nc2cn1 [Compound 269]	+++ (pIC50 ≧ 6.00)	++ (pIC50 5.00-5.99)
O=C1CN(Cc2c(-c3ccc(Cl)cc3Cl)nc3cnc(C4CC4)cn23)CCN1 [Compound 272]	+++ (pIC50 ≧ 6.00)	+++ (pIC50 ≧ 6.00)
O=C1CN(Cc2c(-c3ccc(Cl)cc3)nc3ccc(-c4ncon4)cn23)CCN1 [Compound 278]	++ (pIC50 5.00-5.99)	++ (pIC50 5.00-5.99)
CC(=O)N1CCN(Cc2c(-c3ccc(Cl)cc3)nc3ccc(N(C)S(C)(=O)=O)cn23)CC1 [Compound 292]	+++ (pIC50 ≧ 6.00)	++ (pIC50 5.00-5.99)
O=C1CN(Cc2c(-c3ccc(Cl)cc3)nc3ccc(-c4ccccn4)cn23)CCN1 [Compound 294]	+++ (pIC50 ≧ 6.00)	+++ (pIC50 ≧ 6.00)
CC(=O)N1CCN(Cc2c(-c3ccc(Cl)cc3)nc3ccc(-c4ccccn4)cn23)CC1 [Compound 295]	+++ (pIC50 ≧ 6.00)	+++ (pIC50 ≧ 6.00)
Clc1ccc(-c2nc3ccc(C4COC4)cn3c2CN2CCOCC2)cc1 [Compound 298]	++ (pIC50 5.00-5.99)	+− (pIC50 < 4.00)
Clc1ccc(-c2nc3ccc(-c4ccccn4)cn3c2CN2CCn3ncnc3C2)c(Cl)c1 [Compound 299]	+++ (pIC50 ≧ 6.00)	+++ (pIC50 ≧ 6.00)
O=C(Cc1c(-c2ccc(Cl)cc2)nc2ccc(-c3ccccc3)cn12)N1CCOCC1 [Compound 301]	+− (pIC50 < 4.00)	++ (pIC50 5.00-5.99)
CCOC(=O)Cc1c(-c2ccc(Cl)cc2)nc2ccc(-c3ccccc3)cn12 [Compound 302]	+− (pIC50 < 4.00)	++ (pIC50 5.00-5.99)
CN(c1ccc2nc(-c3ccc(Cl)cc3)c(CN3CCNCC3)n2c1)S(C)(=O)=O [Compound 304]	++ (pIC50 5.00-5.99)	+− (pIC50 < 4.00)
c1ccc(-c2ccc3nc(C4CCOCC4)c(CN4CCOCC4)n3c2)cc1 [Compound 305]	+− (pIC50 < 4.00)	+− (pIC50 < 4.00)
COCC(=O)N1CCN(Cc2c(-c3ccc(Cl)cc3Cl)nc3ccc(-c4ncon4)cn23)CC1 [Compound 307]	+++ (pIC50 ≧ 6.00)	++ (pIC50 5.00-5.99)
CC(C)(O)C(=O)N1CCN(Cc2c(-c3ccc(Cl)cc3)nc3ccc(-c4ccccc4)cn23)CC1 [Compound 308]	+++ (pIC50 ≧ 6.00)	+++ (pIC50 ≧ 6.00)
CC(=O)N1CCN(Cc2c(-c3ccc(Cl)cc3Cl)nc3ccc(-c4ncon4)cn23)CC1 [Compound 312]	+++ (pIC50 ≧ 6.00)	+++ (pIC50 ≧ 6.00)
COCCS(=O)(=O)Nc1ccc2nc(-c3ccc(Cl)cc3)c(CN3CCN(C(C)=O)CC3)n2c1 [Compound 315]	++ (pIC50 5.00-5.99)	+− (pIC50 < 4.00)
CC(=O)N1CCN(Cc2c(-c3ccc(Cl)cc3)nc3ccc(NS(=O)(=O)C(C)C)cn23)CC1 [Compound 317]	++ (pIC50 5.00-5.99)	++ (pIC50 5.00-5.99)
CC(=O)N1CCN(Cc2c(-c3ccc(Cl)cc3)nc3ccc(NS(=O)(=O)C4CC4)cn23)CC1 [Compound 318]	+++ (pIC50 ≧ 6.00)	++ (pIC50 5.00-5.99)
CCCS(=O)(=O)Nc1ccc2nc(-c3ccc(Cl)cc3)c(CN3CCN(C(C)=O)CC3)n2c1 [Compound 319]	+++ (pIC50 ≧ 6.00)	++ (pIC50 5.00-5.99)
CC(=O)N1CCN(Cc2c(-c3ccc(Cl)cc3)nc3ccc(N4CCCS4(=O)=O)cn23)CC1 [Compound 320]	+++ (pIC50 ≧ 6.00)	+++ (pIC50 ≧ 6.00)
Clc1ccc(-c2nc3cnc(C4CC4)cn3c2CN2CCn3ncnc3C2)c(Cl)c1 [Compound 323]	+++ (pIC50 ≧ 6.00)	+++ (pIC50 ≧ 6.00)
CN(c1ccc2nc(-c3ccc(Cl)cc3)c(CN3CCn4ncnc4C3)n2c1)S(C)(=O)=O [Compound 324]	+++ (pIC50 ≧ 6.00)	++ (pIC50 5.00-5.99)
CN(c1ccc2nc(-c3ccc(Cl)cc3)c(CN3CCNC(=O)C3)n2c1)S(C)(=O)=O [Compound 325]	+++ (pIC50 ≧ 6.00)	++ (pIC50 5.00-5.99)
CC(=O)N1CCN(Cc2c(-c3ccc(Cl)cc3)nc3ccc(N(C)S(=O)(=O)C4CC4)cn23)CC1 [Compound 327]	+++ (pIC50 ≧ 6.00)	++ (pIC50 5.00-5.99)
Fc1cncc(F)c1-c1ccc2nc(-c3ccc(Cl)cc3)c(CN3CCOCC3)n2c1 [Compound 328]	++ (pIC50 5.00-5.99)	++ (pIC50 5.00-5.99)

Other lines, results leading:

GLUT1 pIC50 (human GLUT1)	GLUT2 pIC50 (human GLUT2)	Structure (SMILES)
+++ (pIC50 ≧ 6.00)	+++ (pIC50 ≧ 6.00)	Clc1ccc(-c2nc3ccc(-c4ncon4)cn3c2CN2CCn3ncnc3C2)c(Cl)c1 [Compound 329]
+++ (pIC50 ≧ 6.00)	++ (pIC50 5.00-5.99)	CS(=O)(=O)N1CCN(Cc2c(-c3ccc(Cl)cc3Cl)nc3cnc(C4CC4)cn23)CC1 [Compound 330]
+− (pIC50 < 4.00)	+− (pIC50 < 4.00)	CC(=O)N1CCN(Cc2c(-c3ccc(Cl)cc3)nc3cnc(NS(C)(=O)=O)cn23)CC1 [Compound 331]
+++ (pIC50 ≧ 6.00)	++ (pIC50 5.00-5.99)	CS(=O)(=O)Nc1ccc2nc(-c3ccc(Cl)cc3)c(CN3CCn4ncnc4C3)n2c1 [Compound 337]
+++ (pIC50 ≧ 6.00)	+++ (pIC50 ≧ 6.00)	O=C(C1COC1)N1CCN(Cc2c(-c3ccc(Cl)cc3Cl)nc3ccc(-c4ncon4)cn23)CC1 [Compound 338]
+− (pIC50 < 4.00)	++ (pIC50 5.00-5.99)	Clc1ccc(-c2nc3ccc(-c4ccccc4)cn3c2CCN2CCOCC2)cc1 [Compound 342]
+− (pIC50 < 4.00)	+− (pIC50 < 4.00)	CC(=O)N1CCN(Cc2c(-c3ccc(Cl)cc3Cl)nc3cnc(NS(C)(=O)=O)cn23)CC1 [Compound 344]
+++ (pIC50 ≧ 6.00)	++ (pIC50 5.00-5.99)	CS(=O)(=O)Nc1ccc2nc(-c3ccc(Cl)cc3Cl)c(CN3CCn4ncnc4C3)n2c1 [Compound 345]
+++ (pIC50 ≧ 6.00)	++ (pIC50 5.00-5.99)	CC(=O)N1CCN(Cc2c(-c3ccc(Cl)cc3Cl)nc3cnc(N(C)S(C)(=O)=O)cn23)CC1 [Compound 347]
+− (pIC50 < 4.00)	+− (pIC50 < 4.00)	Clc1ccc(-c2nc3cnc(C4CC4)cn3c2CN2CCNCC2)cc1 [Compound 348]
++ (pIC50 5.00-5.99)	+− (pIC50 < 4.00)	CC(=O)N1CCN(Cc2c(-c3ccc(Cl)cc3Cl)nc3cnccn23)CC1 [Compound 349]
+− (pIC50 < 4.00)	+− (pIC50 < 4.00)	Clc1ccc(-c2nc3ccc(-c4ccccc4)cn3c2CN2CCSCC2)cc1 [Compound 352]
